Experimental data from patent US20090232831A1, “METHODS AND COMPOSITIONS FOR THE TREATMENT OR PREVENTION OF HUMAN IMMUNODEFICIENCY VIRUS INFECTION” (priority 2008, published 2009).
pIC50, pKd: −log10 of the molar value.

Columns and labels:
gp120/DC-SIGN-Fc = molecular target: T1, gp120/DC-SIGN-Fc (Homo sapiens, UniProt Q9NNX6); assay: gp120/Fc-DC-SIGN competition ELISA; assay type: binding
T1 construct: fused on or other part: Human IgG Fc fused on as a dimerising and detection handle (detected with anti-human IgG, Fc-gamma-specific antibody)
T1 sequence (Q9NNX6 250-404 limits assumed): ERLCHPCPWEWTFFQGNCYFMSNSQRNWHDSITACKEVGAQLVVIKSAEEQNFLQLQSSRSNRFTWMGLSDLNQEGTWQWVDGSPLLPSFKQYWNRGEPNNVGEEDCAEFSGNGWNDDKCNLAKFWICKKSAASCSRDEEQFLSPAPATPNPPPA
Description: It was then determined whether oligomannose dendrons are able to interfere with the binding between gp120 and DC-SIGN, which is likely to be a key step for dendritic cell-mediated CD4 T cell HIV infection. Gp120/Fc-DC-SIGN ELISA was performed, in a similar setting as gp120/2G12 ELISA, to evaluate the inhibition activity of glycodendrons 14 and 17.
Competition ELISA for Fc-DC-SIGN. DC-SIGN competitions were done with 1.5 μg/ml Fc-DC-SIGN as described above with a few modifications since DC-SIGN is a C-type lectin that requires Ca^2+ for binding. A Tris (10 mM, pH7.8) buffer containing NaCl (150 mM), i.e., TBS, replaced PBS in the abovementioned buffers used for coating, blocking and washing. After the initial wash step, CaCl2 (10 mM) was included in the blocking solution and all subsequent incubation and wash buffers until substrate addition. DC-SIGN-Fc binding was detected with an alkaline phosphatase-conjugated goat anti-human IgG, Fcγ-specific, Ab (Jackson ImmunoResearch Laboratories, Inc.) diluted 1:1000.

2G12 complex = assay: KD,surf of 2G12 complex on glycan-printed normal-NHS-density slide; assay type: binding; details: immobilized on normal-NHS-density slide; saturated value
Description: To further test its multivalent efficacy, 17 was immobilized onto a normal-NHS-density slide (FIG. 3d) at varying printing concentrations.
Second generation Man9 dendron 17 on normal NHS density slide: Similar procedure as for normal density Man4 slide was used. Derivative of 17 with a linker connecting free amine was used for printing. The printing concentrations are 100, 80, 60, 40, 20, 10, 8, 6, 4, 2, 1, 0.8, 0.6, 0.4, 0.2, 0.1, 0.08, 0.06, 0.04, and 0.02 μM. The KD,surf of 2G12 complex was obtained (see Table 4) as previously described.
Determination of KD,surf of glycodendron 17. The procedure is the same as that disclosed in Liang et al., “Quantitative analysis of carbohydrate-protein interactions using glycan microarrays: determination of surface and solution dissociation constants.” J Am Chem Soc 129:11177-11184 (2007), which is hereby incorporated by reference as if fully disclosed herein.

| Compound | pIC50 (gp120/DC-SIGN-Fc) | inhibition activity range (gp120/DC-SIGN-Fc; gp120/Fc-DC-SIGN ELISA) | pKd (2G12 complex) |
| --- | --- | --- | --- |
| O=C[C@@H](O)[C@@H](O)[C@H](O)[C@H](O)CO [D-Mannose, reference compound] | 2.07 | millimolar range |  |
| Man9 [Compound 2] |  |  | 6.08 |
